Experimental data reported in paper PMC11003488 (Journal of Enzyme Inhibition and Medicinal Chemistry, 2023).

What was measured:
786-0 = assay: NCI-60 SRB growth inhibition, one-dose and five-dose; type: cell-based; conditions: Homo sapiens
SR = assay: as above; type: cell-based; conditions: Homo sapiens
UACC-62 = assay: as above; type: cell-based; conditions: Homo sapiens
A498 = assay: as above; type: cell-based; conditions: Homo sapiens
HOP-92 = assay: as above; type: cell-based; conditions: Homo sapiens
SF-268 = assay: as above; type: cell-based; conditions: Homo sapiens
SW-620 = assay: as above; type: cell-based; conditions: Homo sapiens
BT-549 = assay: as above; type: cell-based; conditions: Homo sapiens
NCI-H23 = assay: as above; type: cell-based; conditions: Homo sapiens
OVCAR-3 = assay: as above; type: cell-based; conditions: Homo sapiens
SN12C = assay: as above; type: cell-based; conditions: Homo sapiens
RPMI-8226 = assay: as above; type: cell-based; conditions: Homo sapiens
SNB-19 = assay: as above; type: cell-based; conditions: Homo sapiens
M14 = assay: as above; type: cell-based; conditions: Homo sapiens
PC-3 = assay: as above; type: cell-based; conditions: Homo sapiens
[1] = tested on: NCI 60-cell line panel (full panel); assay: NCI-60 SRB growth inhibition, full panel mean / MG-MID; type: cell-based, human
HCT-116 = assay: NCI-60 SRB growth inhibition, one-dose and five-dose; type: cell-based; conditions: Homo sapiens
NCI-H460 = assay: as above; type: cell-based; conditions: Homo sapiens
TK-10 = assay: as above; type: cell-based; conditions: Homo sapiens
HL-60(TB) = assay: cells; type: cell-based; conditions: Homo sapiens
HCT-15 = assay: NCI-60 SRB growth inhibition, one-dose and five-dose; type: cell-based; conditions: Homo sapiens
K-562 = assay: as above; type: cell-based; conditions: Homo sapiens
CAKI-1 = assay: as above; type: cell-based; conditions: Homo sapiens
EKVX = assay: as above; type: cell-based; conditions: Homo sapiens
A549/ATCC = assay: as above; type: cell-based; conditions: Homo sapiens
OVCAR-5 = assay: as above; type: cell-based; conditions: Homo sapiens
OVCAR-8 = assay: as above; type: cell-based; conditions: Homo sapiens
SNB-75 = assay: as above; type: cell-based; conditions: Homo sapiens
IGROV1 = assay: as above; type: cell-based; conditions: Homo sapiens
NCI-H522 = assay: as above; type: cell-based; conditions: Homo sapiens
HCC-2998 = assay: as above; type: cell-based; conditions: Homo sapiens
RXF 393 = assay: as above; type: cell-based; conditions: Homo sapiens
MCF7 = assay: as above; type: cell-based; conditions: Homo sapiens
HS 578 T = assay: as above; type: cell-based; conditions: Homo sapiens
U251 = assay: as above; type: cell-based; conditions: Homo sapiens
NCI-H322M = assay: as above; type: cell-based; conditions: Homo sapiens
SF-539 = assay: as above; type: cell-based; conditions: Homo sapiens
T-47D = assay: as above; type: cell-based; conditions: Homo sapiens, T47D
SK-MEL-2 = assay: as above; type: cell-based; conditions: Homo sapiens
MOLT-4 = assay: as above; type: cell-based; conditions: Homo sapiens
SK-MEL-28 = assay: as above; type: cell-based; conditions: Homo sapiens
NCI/ADR-RES = assay: as above; type: cell-based; conditions: Homo sapiens
[2] = read-out: percent growth inhibition

SMILES: COc1ccc(CNc2cccc(C(=O)/C=C/c3cccnc3)c2)cc1OC [Compound 5c, (E)-1–(3-((3,4-dimethoxybenzyl)amino)phenyl)-3-(pyridin-3-yl)prop-2-en-1-one]
- GI50 (786-0; 786-0): 3.68 µM
- inhibition at 10 µM (786-0; 786-0, read-out: percent growth inhibition): 133%
- GI50 (SR): 2.48 µM
- inhibition at 10 µM (SR; [2]): 92%
- GI50 (UACC-62; UACC-62): 10.5 µM
- inhibition at 10 µM (UACC-62; UACC-62, read-out: percent growth inhibition): 61.1%
- GI50 (A498; A498): 13.6 µM
- inhibition at 10 µM (A498; A498, read-out: percent growth inhibition): 20%
- GI50 (HOP-92; HOP-92): 11 µM
- inhibition at 10 µM (HOP-92; HOP-92, read-out: percent growth inhibition): 36.8%
- GI50 (SF-268; SF-268): 5.86 µM
- inhibition at 10 µM (SF-268; SF-268, read-out: percent growth inhibition): 40.4%
- GI50 (SW-620; SW-620): 2.31 µM
- inhibition at 10 µM (SW-620; SW-620, read-out: percent growth inhibition): 177%
- GI50 (BT-549; BT-549): 2.57 µM
- inhibition at 10 µM (BT-549; BT-549, read-out: percent growth inhibition): 135%
- GI50 (NCI-H23; NCI-H23): 1.99 µM
- inhibition at 10 µM (NCI-H23; NCI-H23, read-out: percent growth inhibition): 73.6%
- GI50 (OVCAR-3; OVCAR-3): 2.74 µM
- inhibition at 10 µM (OVCAR-3; OVCAR-3, read-out: percent growth inhibition): 107%
- GI50 (SN12C): 11.8 µM
- inhibition at 10 µM (SN12C; [2]): 83.7%
- GI50 (RPMI-8226; RPMI-8226): 2.14 µM
- inhibition at 10 µM (RPMI-8226; RPMI-8226, read-out: percent growth inhibition): 99.7%
- GI50 (SNB-19; SNB-19): 9.49 µM
- inhibition at 10 µM (SNB-19; SNB-19, read-out: percent growth inhibition): 41.3%
- GI50 (M14; M14): 3.82 µM
- inhibition at 10 µM (M14; M14, read-out: percent growth inhibition): 146%
- GI50 (PC-3; PC-3): 8 µM
- inhibition at 10 µM (PC-3; PC-3, read-out: percent growth inhibition): 89%
- GI50 ([1]; Homo sapiens, 60 cell, read-out: Full panel GI50 mean): 7.67 µM
- Full panel Mean GI % ([1]; mean over NCI-60 panel, single dose 10 µM): 87.75%
- GI50 (HCT-116; HCT-116, HCT-116, five-dose screening): 1.94 µM
- inhibition at 10 µM (HCT-116; HCT-116, read-out: percent growth inhibition): 183%
- GI50 (NCI-H460; NCI-H460): 5.22 µM
- inhibition at 10 µM (NCI-H460; NCI-H460, read-out: percent growth inhibition): 69%
- GI50 (TK-10; TK-10): 8.14 µM
- inhibition at 10 µM (TK-10; TK-10, read-out: percent growth inhibition): 23.9%
- GI50 (HL-60(TB); HL-60): 2.78 µM
- inhibition at 10 µM (HL-60(TB); HL-60, read-out: percent growth inhibition): 59.6%
- GI50 (HCT-15; HCT-15): 2.01 µM
- inhibition at 10 µM (HCT-15; HCT-15, read-out: percent growth inhibition): 134%
- GI50 (K-562; K562): 2.71 µM
- inhibition at 10 µM (K-562; K562, read-out: percent growth inhibition): 89%
- GI50 (CAKI-1; CAKI-1): 10.2 µM
- inhibition at 10 µM (CAKI-1; CAKI-1, read-out: percent growth inhibition): 39.8%
- GI50 (EKVX): 10.4 µM
- inhibition at 10 µM (EKVX; [2]): 62.3%
- GI50 (A549/ATCC; A549): 17.2 µM
- inhibition at 10 µM (A549/ATCC; A549, read-out: percent growth inhibition): 17.6%
- GI50 (OVCAR-5; OVCAR-5): 13.9 µM
- inhibition at 10 µM (OVCAR-5; OVCAR-5, read-out: percent growth inhibition): 68.4%
- GI50 (OVCAR-8; OVCAR-8): 4.01 µM
- inhibition at 10 µM (OVCAR-8; OVCAR-8, read-out: percent growth inhibition): 85.1%
- GI50 (SNB-75; SNB-75): 12.9 µM
- inhibition at 10 µM (SNB-75; SNB-75, read-out: percent growth inhibition): 34.2%
- GI50 (IGROV1; IGROV-1): 11 µM
- inhibition at 10 µM (IGROV1; IGROV-1, read-out: percent growth inhibition): 84.3%
- GI50 (NCI-H522; NCI-H522): 13.6 µM
- inhibition at 10 µM (NCI-H522; NCI-H522, read-out: percent growth inhibition): 138%
- GI50 (HCC-2998; HCC 2998): 2.04 µM
- inhibition at 10 µM (HCC-2998; HCC 2998, read-out: percent growth inhibition): 75.8%
- GI50 (RXF 393; RXF 393): 10.8 µM
- inhibition at 10 µM (RXF 393; RXF 393, read-out: percent growth inhibition): 64.9%
- GI50 (MCF7; MCF7): 1.89 µM
- inhibition at 10 µM (MCF7; MCF7, read-out: percent growth inhibition): 186%
- GI50 (HS 578 T): 14.3 µM
- inhibition at 10 µM (HS 578 T; [2]): 98.3%
- GI50 (U251; U-251): 3.62 µM
- inhibition at 10 µM (U251; U-251, read-out: percent growth inhibition): 124%
- GI50 (NCI-H322M): 14.8 µM
- inhibition at 10 µM (NCI-H322M; [2]): 14.2%
- GI50 (SF-539; SF-539): 12.4 µM
- inhibition at 10 µM (SF-539; SF-539, read-out: percent growth inhibition): 162%
- GI50 (T-47D): 10 µM
- inhibition at 10 µM (T-47D; [2]): 105%
- GI50 (SK-MEL-2; SK-MEL-2): 15.1 µM
- inhibition at 10 µM (SK-MEL-2; SK-MEL-2, read-out: percent growth inhibition): 23.5%
- GI50 (MOLT-4; MOLT-4): 2.95 µM
- inhibition at 10 µM (MOLT-4; MOLT-4, read-out: percent growth inhibition): 38.9%
- GI50 (SK-MEL-28; SK-MEL-28): 5.22 µM
- inhibition at 10 µM (SK-MEL-28; SK-MEL-28, read-out: percent growth inhibition): 98.4%
- GI50 (NCI/ADR-RES): 2.96 µM
